Tested on: adult subjects with persistent or chronic immune thrombocytopenia
Test: Clinical trial for immune thrombocytopenia (platelet counts, safety)
Assay type: in vivo, human
Conditions: for platelet count: 600 mg/d; for clinical efficacy in treating immune thrombocytopenia: adult persistent or chronic immune thrombocytopenia; for overall safety: tablets orally once daily on an empty stomach, 28-day cycles, 6 subjects; for percentage of subjects with at least one platelet count of ≥30×10^9/L and an increase of ≥2 times the baseline in platelet count / percentage of subjects with at least one platelet count of ≥50×10^9/L: within 12 weeks of treatment; for percentage of subjects with at least one platelet count of ≥30×10^9/L and an increase of ≥2 times the baseline in platelet count: in the absence of emergency treatment, evaluated patients
Description: Test drug: tablets of the compound of formula I, 50 mg/tablet or 200 mg/tablet; Administration regimen: orally taken once daily on an empty stomach, with 28 consecutive days of administration as one treatment cycle.
Neutrophil count (ANC)>1.5×10^9/L; hemoglobin (Hb)>90 g/L; • b. Total bilirubin (TBIL), alanine aminotransferase (ALT), and aspartate aminotransferase (AST)≤1.5 times the upper limit of normal (ULN); serum creatinine≤1.5×ULN, and creatinine clearance rate≥50 mL/min; • c. […] Prothrombin time (PT) is within the normal range±3 s, and activated partial thromboplastin time (APTT) is within the normal range±10 s; • e. The subject has no history of coagulation disorders other than immune thrombocytopenia. • 8) A female subject of childbearing age should agree to take contraceptive measures (such as intrauterine devices, contraceptives, or condoms) during the study and for 90 days after the study; serum pregnancy test results should be negative within 7 days before enrollment, and the subject must be a non-lactating one; a male subject should agree to take contraceptive measures during the study and for 6 months after the study.
Efficacy was evaluated according to the platelet counts, WHO bleeding scores, and emergency treatment received of the subjects. The effective rate of platelet count increase was used as a main measure of efficacy, and for evaluation criteria, reference was made to American Society of Hematology 2019 Guidelines for Immune Thrombocytopenia and Chinese Guidelines for Diagnosing and Treating Adult Primary Immune Thrombocytopenia (2020 Edition).
A total of 6 subjects were enrolled, with 3 in the 400 mg group (the dose for 2 of them was increased to 600 mg) and 3 in the 600 mg group.

[1] = 400 mg and 600 mg groups, listed as tablets of the compound of formula I
[2] = tablets orally once daily, 400 mg and 600 mg groups

Q: For `Cn1c(=O)c(Nc2ccc(N3CCN(C4COC4)CC3)cn2)cc2c(F)c(-c3cc[nH]n3)ccc21` [compound of formula I], which platelet count (Subject 1, previous third-line therapy, baseline mean 22, D 3) is on record?
A: 5.2e+10 L⁻¹

Q: And the platelet count (Subject 1, previous third-line therapy, baseline mean 22, D 11)?
A: 2.2e+11 L⁻¹

Q: What about the platelet count (Subject 1, previous third-line therapy, baseline mean 22, D 18) of the same molecule?
A: 7e+09 L⁻¹

Q: What about the platelet count (Subject 1, previous third-line therapy, baseline mean 22, D 25) of the same molecule?
A: 9e+09 L⁻¹

Q: What about the platelet count (Subject 1, previous third-line therapy, baseline mean 22, W 5 D 1) of the same molecule?
A: 8.9e+10 L⁻¹

Q: And the platelet count (Subject 1, previous third-line therapy, baseline mean 22, W 6 D 1)?
A: 8.4e+10 L⁻¹

Q: And the platelet count (Subject 1, previous third-line therapy, baseline mean 22, W 7 D 1)?
A: 3.5e+10 L⁻¹

Q: And the platelet count (Subject 1, previous third-line therapy, baseline mean 22, W 8 D 1)?
A: 1.31e+11 L⁻¹

Q: What about the platelet count (Subject 1, previous third-line therapy, baseline mean 22, W 9 D 1) of the same molecule?
A: 2.24e+11 L⁻¹

Q: And the platelet count (Subject 1, previous third-line therapy, baseline mean 22, W 10 D 1)?
A: 2.5e+10 L⁻¹

Q: And the platelet count (Subject 1, previous third-line therapy, baseline mean 22, W 12 D 1)?
A: 1e+11 L⁻¹

Q: What about the platelet count (Subject 2, previous second-line therapy, baseline mean 6.5, D 3) of the same molecule?
A: 1e+10 L⁻¹

Q: What about the platelet count (Subject 2, previous second-line therapy, baseline mean 6.5, D 11) of the same molecule?
A: 3.1e+10 L⁻¹

Q: What about the platelet count (Subject 2, previous second-line therapy, baseline mean 6.5, D 18) of the same molecule?
A: 3.5e+10 L⁻¹

Q: And the platelet count (Subject 2, previous second-line therapy, baseline mean 6.5, D 25)?
A: 2.1e+10 L⁻¹

Q: What about the platelet count (Subject 3, previous first-line therapy, baseline mean 33.5, D 3) of the same molecule?
A: 5.8e+10 L⁻¹

Q: And the platelet count (Subject 3, previous first-line therapy, baseline mean 33.5, D 11)?
A: 8.3e+10 L⁻¹

Q: And the platelet count (Subject 3, previous first-line therapy, baseline mean 33.5, D 18)?
A: 3.4e+10 L⁻¹

Q: And the “clinical efficacy in treating immune thrombocytopenia” value?
A: can effectively improve the platelet count

Q: What about the “clinical efficacy in treating immune thrombocytopenia” value (listed as tablets of the compound of formula I) of the same molecule?
A: excellent clinical efficacy

Q: What about the overall safety (400 mg and 600 mg groups) of the same molecule?
A: good safety

Q: And the overall safety [1]?
A: controllable

Q: And the “dose-limiting toxicity (DLT) events” value [2]?
A: no dose-limiting toxicity (DLT) events

Q: What about the “treatment-related adverse events of grade 3 or higher” value [2] of the same molecule?
A: no treatment-related adverse events of grade 3 or higher

Q: What about the “percentage of subjects with at least one platelet count of ≥30×10^9/L and an increase of ≥2 times the baseline in platelet count” value (400 mg and 600 mg groups) of the same molecule?
A: relatively high

Q: And the “percentage of subjects with at least one platelet count of ≥30×10^9/L and an increase of ≥2 times the baseline in platelet count” value [1]?
A: 50%

Q: And the “percentage of subjects with at least one platelet count of ≥50×10^9/L” value (400 mg and 600 mg groups)?
A: relatively high

Q: And the “percentage of subjects with at least one platelet count of ≥50×10^9/L” value [1]?
A: 33.3%
